Results: patent publication US20260022142A1, “MACROCYCLIC IMMUNOMODULATORS” (Bristol-Myers Squibb Company, priority 2022, published 2026)
Bridge positions count the residues as written; N and C are the ends. Square brackets hold non-standard residues; d marks the D form. Peptide text beside a SMILES is read from it. * marks the point of attachment. ξ: configuration not given here. Phe(4-COOH) = N[C@@H](Cc1ccc(C(=O)O)cc1)C(=O)O; Bip = N[C@@H](Cc1ccc(-c2ccccc2)cc1)C(=O)O; Phe(3-Me) = Cc1cccc(C[C@H](N)C(=O)O)c1; Val(3-OH) = CC(C)(O)[C@H](N)C(=O)O; 4Pal = N[C@@H](Cc1ccncc1)C(=O)O; Cha = N[C@@H](CC1CCCCC1)C(=O)O; Cit = NC(=O)NCCC[C@H](N)C(=O)O; Ile(3ξ) = CCC(C)[C@H](N)C(=O)O; Thr(3ξ) = CC(O)[C@H](N)C(=O)O; dDab = NCC[C@@H](N)C(=O)O; Carboxymethyl = O=C(O)C*; Orn = NCCC[C@H](N)C(=O)O; Aun = NCCCCCCCCCCC(=O)O; Dab = NCC[C@H](N)C(=O)O; AEEA = NCCOCCOCC(=O)O

Molecular target: T1, PD-1/PD-L1 interaction (PE-labeled human PD-L1-Ig binding to Jurkat cell line over-expressing human PD-1) (Homo sapiens, UniProt Q15116)
T1 construct: expressed in transfected cells; host or cells: Jurkat
T1 sequence (Q15116 25-288): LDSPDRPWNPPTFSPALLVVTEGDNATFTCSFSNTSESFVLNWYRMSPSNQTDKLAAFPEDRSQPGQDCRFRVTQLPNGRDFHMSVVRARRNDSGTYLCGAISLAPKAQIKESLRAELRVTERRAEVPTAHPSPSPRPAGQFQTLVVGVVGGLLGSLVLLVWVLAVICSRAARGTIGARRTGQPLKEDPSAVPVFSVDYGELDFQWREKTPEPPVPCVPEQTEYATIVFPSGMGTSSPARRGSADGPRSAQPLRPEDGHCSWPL
Assay: Jurkat-PD-1 Cell Binding High-Content Screening Assay (CBA)
Format: cell-based
Conditions: Jurkat cell line over-expressing human PD-1; PE-labeled PD-L1-Ig 20 nM final; read-out: Jurkat hPD1-PDL1 IC50
How it was run: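 Binding of fluorescent PD-L1-Ig (20 nM final) to Jurkat-PD-1 cells was measured by automated imaging after 1 h, following a 2 h compound pre-treatment at 37° C.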

IC50	SMILES
18.5 nM	CC(C)C[C@H]1NC(=O)[C@H](CCCN)NC(=O)[C@H](CCCNC(N)=O)NC(=O)[C@H](Cc2ccc(-c3ccccc3)cc2)NC(=O)[C@H](C(C)C)NC(=O)[C@H](Cc2c[nH]c3ccccc23)NC(=O)[C@H](CC(=O)O)NC(=O)[C@H](Cc2ccc(OCC(=O)O)cc2)NC(=O)[C@H](C(C)O)NC(=O)CSC[C@@H](C(=O)N[C@@H](CCN)C(=O)NCCOCCOCC(=O)NCCCCCCCCCCC(=O)O)NC(=O)[C@H](C(C)O)NC(=O)[C@H](C(C)(C)O)NC(=O)[C@H](CC2CCCCC2)NC(=O)[C@H](CCN)NC1=O (stereo partly drawn) [Compound 3736] ({CH2CO}-[Thr(3ξ)]Y(Carboxymethyl)DWV[Bip][Cit][Orn][dL][Dab][Cha][Val(3-OH)][Thr(3ξ)]C[Dab][AEEA][Aun]-OH; thioether N-14)
10.5 nM	Cc1cccc(C[C@@H]2NC(=O)[C@H](CC(=O)O)NC(=O)[C@H](Cc3ccc(OCC(=O)O)cc3)NC(=O)[C@H](C(C)O)NC(=O)CSC[C@@H](C(=O)N[C@@H](CCN)C(=O)NCCOCCOCC(=O)NCCCCCCCCCCC(=O)O)NC(=O)[C@H](CCC(=O)O)NC(=O)[C@H](C(C)C)NC(=O)[C@H](CC3CCCCC3)NC(=O)[C@H](CCN)NC(=O)[C@@H](CC(C)C)NC(=O)[C@H](CCCN)NC(=O)[C@H](Cc3ccc(OCC(=O)O)cc3)NC(=O)[C@H](Cc3ccc(-c4ccccc4)cc3)NC(=O)[C@H](Cc3ccc(C(=O)O)cc3)NC2=O)c1 (stereo partly drawn) [Compound 3737] ({CH2CO}-[Thr(3ξ)]Y(Carboxymethyl)D[Phe(3-Me)][Phe(4-COOH)][Bip]Y(Carboxymethyl)[Orn][dL][Dab][Cha]VEC[Dab][AEEA][Aun]-OH; thioether N-14)
20.7 nM	Cc1cccc(C[C@@H]2NC(=O)[C@H](CC(=O)O)NC(=O)[C@H](Cc3ccc(OCC(=O)O)cc3)NC(=O)[C@H](Cc3ccncc3)NC(=O)CSC[C@@H](C(=O)N[C@H](CCN)C(=O)NCCCCCCCCCCC(=O)O)NC(=O)[C@H](Cc3cnc[nH]3)NC(=O)[C@H](C(C)(C)O)NC(=O)[C@H](CC3CCCCC3)NC(=O)[C@H](CCN)NC(=O)[C@@H](CC(C)C)NC(=O)[C@H](CCCN)NC(=O)[C@H](Cc3ccc(OCC(=O)O)cc3)NC(=O)[C@H](Cc3ccc(-c4ccccc4)cc3)NC(=O)[C@H](Cc3ccc(OCC(=O)O)cc3)NC2=O)c1 [Compound 3738] ({CH2CO}-[4Pal]Y(Carboxymethyl)D[Phe(3-Me)]Y(Carboxymethyl)[Bip]Y(Carboxymethyl)[Orn][dL][Dab][Cha][Val(3-OH)]HC[dDab][Aun]-OH; thioether N-14)
40.5 nM	CCC(C)[C@@H]1NC(=O)[C@H](Cc2ccc(-c3ccccc3)cc2)NC(=O)[C@H](Cc2ccc(C(=O)O)cc2)NC(=O)[C@H](Cc2cccc(C)c2)NC(=O)[C@H](CC(=O)O)NC(=O)[C@H](Cc2ccc(C(=O)O)cc2)NC(=O)[C@H](Cc2ccncc2)NC(=O)CSC[C@@H](C(=O)N[C@H](CCN)C(=O)NCCOCCOCC(=O)NCCCCCCCCCCC(=O)O)NC(=O)[C@H](CCC(=O)O)NC(=O)[C@H](C(C)(C)O)NC(=O)[C@H](CC2CCCCC2)NC(=O)[C@H](CCN)NC(=O)[C@@H](CC(C)C)NC(=O)[C@H](Cc2cnc[nH]2)NC1=O (stereo partly drawn) [Compound 3739] ({CH2CO}-[4Pal][Phe(4-COOH)]D[Phe(3-Me)][Phe(4-COOH)][Bip][Ile(3ξ)]H[dL][Dab][Cha][Val(3-OH)]EC[dDab][AEEA][Aun]-OH; thioether N-14)
16.1 nM	Cc1cccc(C[C@@H]2NC(=O)[C@H](CC(=O)O)NC(=O)[C@H](Cc3ccc(OCC(=O)O)cc3)NC(=O)[C@H](Cc3ccncc3)NC(=O)CSC[C@@H](C(=O)N[C@H](CCN)C(=O)NCCOCCOCC(=O)NCCCCCCCCCCC(=O)O)NC(=O)[C@H](CCC(=O)O)NC(=O)[C@H](C(C)(C)O)NC(=O)[C@H](CC3CCCCC3)NC(=O)[C@H](CCN)NC(=O)[C@@H](CC(C)C)NC(=O)[C@H](Cc3cnc[nH]3)NC(=O)[C@H](Cc3ccc(C(=O)O)cc3)NC(=O)[C@H](Cc3ccc(-c4ccccc4)cc3)NC(=O)[C@H](Cc3ccc(C(=O)O)cc3)NC2=O)c1 [Compound 3740] ({CH2CO}-[4Pal]Y(Carboxymethyl)D[Phe(3-Me)][Phe(4-COOH)][Bip][Phe(4-COOH)]H[dL][Dab][Cha][Val(3-OH)]EC[dDab][AEEA][Aun]-OH; thioether N-14)
8.8 nM	Cc1cccc(C[C@@H]2NC(=O)[C@H](CC(=O)O)NC(=O)[C@H](Cc3ccc(OCC(=O)O)cc3)NC(=O)[C@H](Cc3ccncc3)NC(=O)CSC[C@@H](C(=O)N[C@@H](CCN)C(=O)NCCOCCOCC(=O)NCCOCCOCC(=O)NCCCCCCCCCCC(=O)O)NC(=O)[C@H](CCC(=O)O)NC(=O)[C@H](C(C)(C)O)NC(=O)[C@H](CC3CCCCC3)NC(=O)[C@H](CCN)NC(=O)[C@@H](CC(C)C)NC(=O)[C@H](CCCN)NC(=O)[C@H](Cc3ccc(C(=O)O)cc3)NC(=O)[C@H](Cc3ccc(-c4ccccc4)cc3)NC(=O)[C@H](Cc3ccc(C(=O)O)cc3)NC2=O)c1 [Compound 3741] ({CH2CO}-[4Pal]Y(Carboxymethyl)D[Phe(3-Me)][Phe(4-COOH)][Bip][Phe(4-COOH)][Orn][dL][Dab][Cha][Val(3-OH)]EC[Dab][AEEA][AEEA][Aun]-OH; thioether N-14)
1.7 nM	Cc1cccc(C[C@@H]2NC(=O)[C@H](CC(=O)O)NC(=O)[C@H](Cc3ccc(OCC(=O)O)cc3)NC(=O)[C@H](Cc3ccncc3)NC(=O)CSC[C@@H](C(=O)N[C@@H](CCN)C(=O)NCCOCCOCC(=O)NCCOCCOCC(=O)NCCCCCCCCCCC(=O)O)NC(=O)[C@H](Cc3cnc[nH]3)NC(=O)[C@H](C(C)(C)O)NC(=O)[C@H](CC3CCCCC3)NC(=O)[C@H](CCN)NC(=O)[C@@H](CC(C)C)NC(=O)[C@H](CCCN)NC(=O)[C@H](Cc3ccc(C(=O)O)cc3)NC(=O)[C@H](Cc3ccc(-c4ccccc4)cc3)NC(=O)[C@H](Cc3ccc(C(=O)O)cc3)NC2=O)c1 [Compound 3742] ({CH2CO}-[4Pal]Y(Carboxymethyl)D[Phe(3-Me)][Phe(4-COOH)][Bip][Phe(4-COOH)][Orn][dL][Dab][Cha][Val(3-OH)]HC[Dab][AEEA][AEEA][Aun]-OH; thioether N-14)
4.8 nM	Cc1cccc(C[C@@H]2NC(=O)[C@H](CC(=O)O)NC(=O)[C@H](Cc3ccc(C(=O)O)cc3)NC(=O)[C@H](C(C)C)NC(=O)CSC[C@@H](C(=O)N[C@@H](CCN)C(=O)NCCOCCOCC(=O)NCCCCCCCCCCC(=O)O)NC(=O)[C@H](CO)NC(=O)[C@H](C(C)(C)O)NC(=O)[C@H](CC3CCCCC3)NC(=O)[C@H](CCN)NC(=O)[C@@H](CC(C)C)NC(=O)[C@H](CCCN)NC(=O)[C@H](Cc3ccc(OCC(=O)O)cc3)NC(=O)[C@H](Cc3ccc(-c4ccccc4)cc3)NC(=O)[C@H](Cc3ccc(OCC(=O)O)cc3)NC2=O)c1 [Compound 3743] ({CH2CO}-V[Phe(4-COOH)]D[Phe(3-Me)]Y(Carboxymethyl)[Bip]Y(Carboxymethyl)[Orn][dL][Dab][Cha][Val(3-OH)]SC[Dab][AEEA][Aun]-OH; thioether N-14)
16.6 nM	Cc1cccc(C[C@@H]2NC(=O)[C@H](CC(=O)O)NC(=O)[C@H](Cc3ccc(OCC(=O)O)cc3)NC(=O)[C@H](Cc3ccncc3)NC(=O)CSC[C@@H](C(=O)N[C@@H](CCN)C(=O)NCCOCCOCC(=O)NCCCCCCCCCCC(=O)O)NC(=O)[C@H](CCC(=O)O)NC(=O)[C@H](C(C)(C)O)NC(=O)[C@H](CC3CCCCC3)NC(=O)[C@H](CCN)NC(=O)[C@@H](CC(C)C)NC(=O)[C@H](CCCN)NC(=O)[C@H](Cc3ccc(C(=O)O)cc3)NC(=O)[C@H](Cc3ccc(-c4ccccc4)cc3)NC(=O)[C@H](Cc3ccc(C(=O)O)cc3)NC2=O)c1 [Compound 3744] ({CH2CO}-[4Pal]Y(Carboxymethyl)D[Phe(3-Me)][Phe(4-COOH)][Bip][Phe(4-COOH)][Orn][dL][Dab][Cha][Val(3-OH)]EC[Dab][AEEA][Aun]-OH; thioether N-14)
6.8 nM	Cc1cccc(C[C@@H]2NC(=O)[C@H](CC(=O)O)NC(=O)[C@H](Cc3ccc(OCC(=O)O)cc3)NC(=O)[C@H](Cc3ccncc3)NC(=O)CSC[C@@H](C(=O)N[C@@H](CCN)C(=O)NCCOCCOCC(=O)NCCCCCCCCCCC(=O)O)NC(=O)[C@H](CCC(=O)O)NC(=O)[C@H](C(C)(C)O)NC(=O)[C@H](CC3CCCCC3)NC(=O)[C@H](CCN)NC(=O)[C@@H](CC(C)C)NC(=O)[C@H](CCC(N)=O)NC(=O)[C@H](Cc3ccc(OCC(=O)O)cc3)NC(=O)[C@H](Cc3ccc(-c4ccccc4)cc3)NC(=O)[C@H](Cc3ccc(OCC(=O)O)cc3)NC2=O)c1 [Compound 3746] ({CH2CO}-[4Pal]Y(Carboxymethyl)D[Phe(3-Me)]Y(Carboxymethyl)[Bip]Y(Carboxymethyl)Q[dL][Dab][Cha][Val(3-OH)]EC[Dab][AEEA][Aun]-OH; thioether N-14)
12.1 nM	Cc1cccc(C[C@@H]2NC(=O)[C@H](CC(=O)O)NC(=O)[C@H](Cc3ccc(OCC(=O)O)cc3)NC(=O)[C@H](Cc3ccncc3)NC(=O)CSC[C@@H](C(=O)N[C@@H](CCN)C(=O)NCCOCCOCC(=O)NCCCCCCCCCCC(=O)O)NC(=O)[C@H](CO)NC(=O)[C@H](C(C)(C)O)NC(=O)[C@H](CC3CCCCC3)NC(=O)[C@H](CCN)NC(=O)[C@@H](CC(C)C)NC(=O)[C@H](CCC(N)=O)NC(=O)[C@H](Cc3ccc(C(=O)O)cc3)NC(=O)[C@H](Cc3ccc(-c4ccccc4)cc3)NC(=O)[C@H](Cc3ccc(C(=O)O)cc3)NC2=O)c1 [Compound 3747] ({CH2CO}-[4Pal]Y(Carboxymethyl)D[Phe(3-Me)][Phe(4-COOH)][Bip][Phe(4-COOH)]Q[dL][Dab][Cha][Val(3-OH)]SC[Dab][AEEA][Aun]-OH; thioether N-14)
10.5 nM	Cc1cccc(C[C@@H]2NC(=O)[C@H](CC(=O)O)NC(=O)[C@H](Cc3ccc(OCC(=O)O)cc3)NC(=O)[C@H](Cc3ccncc3)NC(=O)CSC[C@@H](C(=O)N[C@@H](CCN)C(=O)NCCOCCOCC(=O)NCCCCCCCCCCC(=O)O)NC(=O)[C@H](CCC(=O)O)NC(=O)[C@H](C(C)(C)O)NC(=O)[C@H](CC3CCCCC3)NC(=O)[C@H](CCN)NC(=O)[C@@H](CC(C)C)NC(=O)[C@H](CCC(N)=O)NC(=O)[C@H](Cc3ccc(C(=O)O)cc3)NC(=O)[C@H](Cc3ccc(-c4ccccc4)cc3)NC(=O)[C@H](Cc3ccc(C(=O)O)cc3)NC2=O)c1 [Compound 3748] ({CH2CO}-[4Pal]Y(Carboxymethyl)D[Phe(3-Me)][Phe(4-COOH)][Bip][Phe(4-COOH)]Q[dL][Dab][Cha][Val(3-OH)]EC[Dab][AEEA][Aun]-OH; thioether N-14)
